Activity calls are given as the source filed them. The calls are words filed in the database; no cut-off is given here.
Tests used:
HCT-116 [1] = test: Antiproliferative activity against human HCT116 cells at 30 uM for 24 hrs by MTT assay; type: functional
HCT-116 [2] = test: Antiproliferative activity against human HCT116 cells at 100 uM for 24 hrs by MTT assay; type: functional
EC9706 [3] = test: (§1) Antiproliferative activity against human EC9706 cells at 75 uM for 24 hrs by MTT assay; type: functional
EC9706 [4] = test: (§2) Antiproliferative activity against human EC9706 cells at 100 uM for 24 hrs by MTT assay; type: functional
[5] = Cell cycle arrest in human EC9706 cells assessed as accumulation in G2/M phase at 30 uM after 12 hrs; type: functional, cell-based
[6] = Cell cycle arrest in human EC9706 cells assessed as accumulation in G2/M phase at 30 uM after 18 hrs; type: functional, cell-based
HCT-116 [7] = test: Induction of apoptosis in human HCT116 cells assessed as morphological changes at 100 uM after 24 hrs; type: functional, cell-based
EC9706 [8] = test: Induction of apoptosis in human EC9706 cells assessed as morphological changes at 100 uM after 24 hrs; type: functional, cell-based
[9] = as §1; type: functional
[10] = as §2; type: functional
HCT-116 [11] = test: Cell cycle arrest in human HCT116 cells assessed as accumulation in G2/M phase at 30 uM after 12 hrs; type: functional, cell-based
HCT-116 [12] = test: Induction of apoptosis in human HCT116 cells assessed as increase in cell debris at 30 uM after 18 hrs; type: functional, cell-based

Row | Compound | Activity (HCT-116 [1]) | Activity (HCT-116 [2]) | Activity (EC9706 [3]) | Activity (EC9706 [4]) | Activity [5] | Activity [6] | Activity (HCT-116 [7]) | Activity (EC9706 [8]) | Activity [9] [%] | Activity [10] [%] | Activity (HCT-116 [11]) | Activity (HCT-116 [12])
1 | N=C(N)NCCC[C@H](NC(=O)[C@H](CCCNC(=N)N)NC(=O)[C@H](CCCNC(=N)N)NC(=O)[C@H](CCC(N)=O)NC(=O)[C@H](CCCNC(=N)N)NC(=O)[C@H](CCCNC(=N)N)NC(=O)[C@H](CCCCN)NC(=O)[C@H](CCCCN)NC(=O)[C@@H](N)CCCNC(=N)N)C(=O)O | inactive | inactive | inactive | inactive | inactive | inactive | inactive | inactive |  |  |  | 
2 | H-KAQIRAMECNIL-OH | inactive | inactive | inactive | inactive |  |  |  |  |  |  |  | 
3 | H-KAQIRAMECNILGRKKRRQRRR-OH | 55% | 16% |  |  | Active | Active | Active | Active | 69 | 52 | Active | Active

Source: ChEMBL document CHEMBL1155957, “A novel peptide from alpha5 helix of Asterina pectinifera cyclin B conjugated to HIV-Tat(49-57) with cytotoxic and apoptotic effects against human cancer cells” (2008)
